# Measurements from the NIST ThermoML archive (doi:10.1021/je800463k).
# Numbers after ± are expanded uncertainties.
# Test: mn = molality of the nth substance listed, in mol/kg
# Settings: 101 kPa, Liquid; for electrical conductivity: Frequency=0.001 MHz, Alternating current cell with electrodes; for speed of sound: Frequency=2 MHz; for mass density: Pycnometric method
smiles,measurement,setting,value
O=[N+]([O-])[O-].O=[N+]([O-])[O-].[Mg+2] [magnesium nitrate] + CO,electrical conductivity,"288.15 K, m1 = 0.0667",0.393 ± 0.0001 S/m
same,electrical conductivity,"288.15 K, m1 = 0.1047",0.5164 ± 0.0001 S/m
same,electrical conductivity,"288.15 K, m1 = 0.2776",0.9691 ± 0.0001 S/m
same,electrical conductivity,"288.15 K, m1 = 0.4024",1.214 ± 0.001 S/m
same,electrical conductivity,"288.15 K, m1 = 0.4555",1.267 ± 0.001 S/m
same,electrical conductivity,"288.15 K, m1 = 0.6276",1.489 ± 0.001 S/m
same,electrical conductivity,"288.15 K, m1 = 0.782",1.639 ± 0.001 S/m
same,electrical conductivity,"288.15 K, m1 = 0.881",1.678 ± 0.001 S/m
same,electrical conductivity,"288.15 K, m1 = 0.9116",1.69 ± 0.001 S/m
same,electrical conductivity,"288.15 K, m1 = 1.004",1.744 ± 0.001 S/m
same,electrical conductivity,"288.15 K, m1 = 1.259",1.772 ± 0.001 S/m
same,electrical conductivity,"288.15 K, m1 = 1.492",1.746 ± 0.001 S/m
same,electrical conductivity,"288.15 K, m1 = 1.71",1.738 ± 0.001 S/m
same,electrical conductivity,"288.15 K, m1 = 1.875",1.698 ± 0.001 S/m
same,speed of sound,"288.15 K, m1 = 0.0082",1141.9 ± 6.6 m/s
same,speed of sound,"288.15 K, m1 = 0.0545",1145.7 ± 6.6 m/s
same,speed of sound,"288.15 K, m1 = 0.0667",1147.2 ± 6.6 m/s
same,speed of sound,"288.15 K, m1 = 0.1047",1152.3 ± 6.6 m/s
same,speed of sound,"288.15 K, m1 = 0.2776",1170.8 ± 6.7 m/s
same,speed of sound,"288.15 K, m1 = 0.4024",1182.6 ± 6.8 m/s
same,speed of sound,"288.15 K, m1 = 0.4555",1188.5 ± 6.8 m/s
same,speed of sound,"288.15 K, m1 = 0.6276",1203 ± 6.8 m/s
same,speed of sound,"288.15 K, m1 = 0.782",1221.6 ± 6.9 m/s
same,speed of sound,"288.15 K, m1 = 0.881",1225.4 ± 6.9 m/s
same,speed of sound,"288.15 K, m1 = 0.9116",1231.2 ± 7 m/s
same,speed of sound,"288.15 K, m1 = 1.004",1245.4 ± 7 m/s
same,speed of sound,"288.15 K, m1 = 1.259",1266.8 ± 7.1 m/s
same,speed of sound,"288.15 K, m1 = 1.492",1292.2 ± 7.2 m/s
same,speed of sound,"288.15 K, m1 = 1.71",1311.9 ± 7.3 m/s
same,speed of sound,"288.15 K, m1 = 1.875",1320.1 ± 7.3 m/s
same,viscosity,"288.15 K, m1 = 0.0082",0.6479 ± 0.034 mPa·s
same,viscosity,"288.15 K, m1 = 0.0545",0.69 ± 0.036 mPa·s
same,viscosity,"288.15 K, m1 = 0.0667",0.7149 ± 0.037 mPa·s
same,viscosity,"288.15 K, m1 = 0.1047",0.743 ± 0.038 mPa·s
same,viscosity,"288.15 K, m1 = 0.2776",0.8665 ± 0.044 mPa·s
same,viscosity,"288.15 K, m1 = 0.4024",1.016 ± 0.05 mPa·s
same,viscosity,"288.15 K, m1 = 0.4555",1.06 ± 0.052 mPa·s
same,viscosity,"288.15 K, m1 = 0.6276",1.408 ± 0.067 mPa·s
same,viscosity,"288.15 K, m1 = 0.782",1.556 ± 0.073 mPa·s
same,viscosity,"288.15 K, m1 = 0.881",1.575 ± 0.074 mPa·s
same,viscosity,"288.15 K, m1 = 0.9116",1.679 ± 0.079 mPa·s
same,viscosity,"288.15 K, m1 = 1.004",1.828 ± 0.085 mPa·s
same,viscosity,"288.15 K, m1 = 1.259",2.586 ± 0.12 mPa·s
same,viscosity,"288.15 K, m1 = 1.492",3.198 ± 0.14 mPa·s
same,viscosity,"288.15 K, m1 = 1.71",3.978 ± 0.18 mPa·s
same,viscosity,"288.15 K, m1 = 1.875",4.642 ± 0.2 mPa·s
same,electrical conductivity,"293.15 K, m1 = 0.0082",0.1341 ± 0.0001 S/m
same,electrical conductivity,"293.15 K, m1 = 0.0545",0.3807 ± 0.0001 S/m
same,electrical conductivity,"293.15 K, m1 = 0.0667",0.412 ± 0.0001 S/m
same,electrical conductivity,"293.15 K, m1 = 0.1047",0.5415 ± 0.0001 S/m
same,electrical conductivity,"293.15 K, m1 = 0.2776",1.021 ± 0.001 S/m
same,electrical conductivity,"293.15 K, m1 = 0.4024",1.277 ± 0.001 S/m
same,electrical conductivity,"293.15 K, m1 = 0.4555",1.341 ± 0.001 S/m
same,electrical conductivity,"293.15 K, m1 = 0.6276",1.584 ± 0.001 S/m
same,electrical conductivity,"293.15 K, m1 = 0.782",1.752 ± 0.001 S/m
same,electrical conductivity,"293.15 K, m1 = 0.881",1.797 ± 0.001 S/m
same,electrical conductivity,"293.15 K, m1 = 0.9116",1.811 ± 0.001 S/m
same,electrical conductivity,"293.15 K, m1 = 1.004",1.873 ± 0.001 S/m
same,electrical conductivity,"293.15 K, m1 = 1.259",1.917 ± 0.001 S/m
same,electrical conductivity,"293.15 K, m1 = 1.492",1.9 ± 0.001 S/m
same,electrical conductivity,"293.15 K, m1 = 1.71",1.902 ± 0.001 S/m
same,electrical conductivity,"293.15 K, m1 = 1.875",1.866 ± 0.001 S/m
same,speed of sound,"293.15 K, m1 = 0.0082",1123.3 ± 6.5 m/s
same,speed of sound,"293.15 K, m1 = 0.0545",1129 ± 6.5 m/s
same,speed of sound,"293.15 K, m1 = 0.0667",1130.5 ± 6.6 m/s
same,speed of sound,"293.15 K, m1 = 0.1047",1134.7 ± 6.6 m/s
same,speed of sound,"293.15 K, m1 = 0.2776",1154.7 ± 6.6 m/s
same,speed of sound,"293.15 K, m1 = 0.4024",1165.8 ± 6.7 m/s
same,speed of sound,"293.15 K, m1 = 0.4555",1172.6 ± 6.7 m/s
same,speed of sound,"293.15 K, m1 = 0.6276",1187.3 ± 6.8 m/s
same,speed of sound,"293.15 K, m1 = 0.782",1205.7 ± 6.9 m/s
same,speed of sound,"293.15 K, m1 = 0.881",1212 ± 6.9 m/s
same,speed of sound,"293.15 K, m1 = 0.9116",1215.2 ± 6.9 m/s
same,speed of sound,"293.15 K, m1 = 1.004",1229.3 ± 6.9 m/s
same,speed of sound,"293.15 K, m1 = 1.259",1250.2 ± 7 m/s
same,speed of sound,"293.15 K, m1 = 1.492",1275.7 ± 7.1 m/s
same,speed of sound,"293.15 K, m1 = 1.71",1295.5 ± 7.2 m/s
same,speed of sound,"293.15 K, m1 = 1.875",1304 ± 7.2 m/s
same,viscosity,"293.15 K, m1 = 0.0082",0.6014 ± 0.032 mPa·s
same,viscosity,"293.15 K, m1 = 0.0545",0.6412 ± 0.034 mPa·s
same,viscosity,"293.15 K, m1 = 0.0667",0.6621 ± 0.035 mPa·s
same,viscosity,"293.15 K, m1 = 0.1047",0.6872 ± 0.036 mPa·s
same,viscosity,"293.15 K, m1 = 0.2776",0.7989 ± 0.041 mPa·s
same,viscosity,"293.15 K, m1 = 0.4024",0.9313 ± 0.046 mPa·s
same,viscosity,"293.15 K, m1 = 0.4555",0.9778 ± 0.049 mPa·s
same,viscosity,"293.15 K, m1 = 0.6276",1.271 ± 0.061 mPa·s
same,viscosity,"293.15 K, m1 = 0.782",1.415 ± 0.067 mPa·s
same,viscosity,"293.15 K, m1 = 0.881",1.429 ± 0.068 mPa·s
same,viscosity,"293.15 K, m1 = 0.9116",1.517 ± 0.072 mPa·s
same,viscosity,"293.15 K, m1 = 1.004",1.65 ± 0.078 mPa·s
same,viscosity,"293.15 K, m1 = 1.259",2.306 ± 0.11 mPa·s
same,viscosity,"293.15 K, m1 = 1.492",2.833 ± 0.13 mPa·s
same,viscosity,"293.15 K, m1 = 1.71",3.5 ± 0.16 mPa·s
same,viscosity,"293.15 K, m1 = 1.875",4.058 ± 0.18 mPa·s
same,electrical conductivity,"298.15 K, m1 = 0.0082",0.1401 ± 0.0001 S/m
same,electrical conductivity,"298.15 K, m1 = 0.0545",0.3953 ± 0.0001 S/m
same,electrical conductivity,"298.15 K, m1 = 0.0667",0.4305 ± 0.0001 S/m
same,electrical conductivity,"298.15 K, m1 = 0.1047",0.5657 ± 0.0001 S/m
same,electrical conductivity,"298.15 K, m1 = 0.2776",1.073 ± 0.001 S/m
same,electrical conductivity,"298.15 K, m1 = 0.4024",1.343 ± 0.001 S/m
same,electrical conductivity,"298.15 K, m1 = 0.4555",1.416 ± 0.001 S/m
same,electrical conductivity,"298.15 K, m1 = 0.6276",1.68 ± 0.001 S/m
same,electrical conductivity,"298.15 K, m1 = 0.782",1.866 ± 0.001 S/m
same,electrical conductivity,"298.15 K, m1 = 0.881",1.918 ± 0.001 S/m
same,electrical conductivity,"298.15 K, m1 = 0.9116",1.933 ± 0.001 S/m
same,electrical conductivity,"298.15 K, m1 = 1.004",2.005 ± 0.001 S/m
same,electrical conductivity,"298.15 K, m1 = 1.259",2.065 ± 0.001 S/m
same,electrical conductivity,"298.15 K, m1 = 1.492",2.06 ± 0.001 S/m
same,electrical conductivity,"298.15 K, m1 = 1.71",2.073 ± 0.001 S/m
same,electrical conductivity,"298.15 K, m1 = 1.875",2.039 ± 0.001 S/m
same,speed of sound,"298.15 K, m1 = 0.0082",1108.5 ± 6.5 m/s
same,speed of sound,"298.15 K, m1 = 0.0545",1115.7 ± 6.5 m/s
same,speed of sound,"298.15 K, m1 = 0.0667",1113.6 ± 6.5 m/s
same,speed of sound,"298.15 K, m1 = 0.1047",1118.5 ± 6.5 m/s
same,speed of sound,"298.15 K, m1 = 0.2776",1138.2 ± 6.6 m/s
same,speed of sound,"298.15 K, m1 = 0.4024",1149 ± 6.6 m/s
same,speed of sound,"298.15 K, m1 = 0.4555",1155.9 ± 6.7 m/s
same,speed of sound,"298.15 K, m1 = 0.6276",1171.1 ± 6.7 m/s
same,speed of sound,"298.15 K, m1 = 0.782",1188.8 ± 6.8 m/s
same,speed of sound,"298.15 K, m1 = 0.881",1195.8 ± 6.8 m/s
same,speed of sound,"298.15 K, m1 = 0.9116",1198.8 ± 6.8 m/s
same,speed of sound,"298.15 K, m1 = 1.004",1212.9 ± 6.9 m/s
same,speed of sound,"298.15 K, m1 = 1.259",1232.2 ± 7 m/s
same,speed of sound,"298.15 K, m1 = 1.492",1259.5 ± 7.1 m/s
same,speed of sound,"298.15 K, m1 = 1.71",1279.9 ± 7.2 m/s
same,speed of sound,"298.15 K, m1 = 1.875",1288.1 ± 7.2 m/s
same,viscosity,"298.15 K, m1 = 0.0082",0.5595 ± 0.03 mPa·s
same,viscosity,"298.15 K, m1 = 0.0545",0.5957 ± 0.032 mPa·s
same,viscosity,"298.15 K, m1 = 0.0667",0.6148 ± 0.033 mPa·s
same,viscosity,"298.15 K, m1 = 0.1047",0.6361 ± 0.034 mPa·s
same,viscosity,"298.15 K, m1 = 0.2776",0.7381 ± 0.038 mPa·s
same,viscosity,"298.15 K, m1 = 0.4024",0.8609 ± 0.043 mPa·s
same,viscosity,"298.15 K, m1 = 0.4555",0.8966 ± 0.045 mPa·s
same,viscosity,"298.15 K, m1 = 0.6276",1.146 ± 0.056 mPa·s
same,viscosity,"298.15 K, m1 = 0.782",1.287 ± 0.062 mPa·s
same,viscosity,"298.15 K, m1 = 0.881",1.301 ± 0.063 mPa·s
same,viscosity,"298.15 K, m1 = 0.9116",1.369 ± 0.065 mPa·s
same,viscosity,"298.15 K, m1 = 1.004",1.491 ± 0.071 mPa·s
same,viscosity,"298.15 K, m1 = 1.259",2.078 ± 0.096 mPa·s
same,viscosity,"298.15 K, m1 = 1.492",2.541 ± 0.12 mPa·s
same,viscosity,"298.15 K, m1 = 1.71",3.094 ± 0.14 mPa·s
same,viscosity,"298.15 K, m1 = 1.875",3.556 ± 0.16 mPa·s
same,mass density,"300.6 K, m1 = 0.1047",798.24 ± 4.2 kg/m3
same,mass density,"300.7 K, m1 = 0.6276",850.07 ± 21 kg/m3
same,mass density,"300.8 K, m1 = 0.881",871.54 ± 35 kg/m3
same,mass density,"301.1 K, m1 = 1.492",934.05 ± 50 kg/m3
